Some test systems named below: UACC-257 melanoma; SK-MEL-2 melanoma; CCRF-CEM leukemia; HT29 colon; NCI-H226 lung; OVCAR-5 ovarian; SNB-75 CNS; T-47D breast; HL-60(TB) leukemia; PC-3 prostate.
What all share (test): NCI anticancer screen, dose series, 48 h

Structures are written as SMILES. Where “and” joins values, the source holds several entries; their conditions need not be identical. Equal values may be shown once.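 96-well plates; 48 h exposure; 5 concentrations. Endpoints by linear interpolation between flanking doses. Not reached: highest tested concentration assigned. Abbreviation: GI50, concentration required for 50% inhibition of growth. TGI: concentration producing complete growth inhibition.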

On to `C=CCCC(O)c1ccc(CCCCCCCCCCC)o1` (stereo not given), for which the GI50 in the experiment on UACC-257 melanoma is 18.6 µM; with SK-MEL-2 melanoma it was 17.6 µM; in the experiment with CCRF-CEM leukemia, 19.3 µM; with HT29 colon, 16.1 µM; with NCI-H226 lung, 17.7 µM; in the experiment on OVCAR-5 ovarian, 18.3 µM. In addition, the GI50 was 14.2 µM with SNB-75 CNS, 13.8 µM in the experiment on T-47D breast, 39.2 µM in the experiment with HL-60(TB) leukemia and 18.8 µM in the experiment on PC-3 prostate. Besides, the TGI with UACC-257 melanoma was determined as 33.9 µM; in the experiment on SK-MEL-2 melanoma, 37.1 µM; with CCRF-CEM leukemia, 40 µM; with HT29 colon, 33.5 µM; with NCI-H226 lung, 33.1 µM; with OVCAR-5 ovarian, 35.9 µM. Besides, the TGI is 28.6 µM in the experiment on SNB-75 CNS, 30.5 µM with T-47D breast, above 100 µM in the experiment on HL-60(TB) leukemia and 36.6 µM in the experiment on PC-3 prostate.

With `Cc1ccc2nc(CC(=O)c3ccc4ccccc4c3)c(=O)[nH]c2c1`, the TGI with UACC-257 melanoma, with SK-MEL-2 melanoma, with CCRF-CEM leukemia, in the experiment with HT29 colon, with NCI-H226 lung and with OVCAR-5 ovarian was above 100 µM throughout. Besides, the TGI with SNB-75 CNS, in the experiment with T-47D breast, in the experiment on HL-60(TB) leukemia and in the experiment with PC-3 prostate was above 100 µM in each case.

For `C=C(CN(C)C)C(=O)c1ccc(OC)cc1`, the TGI in the experiment with UACC-257 melanoma was 11.6 µM; in the experiment with SK-MEL-2 melanoma, 13.2 µM; in the experiment with CCRF-CEM leukemia, 1.08 µM; in the experiment with HT29 colon it was 25.1 µM; with NCI-H226 lung, 29.4 µM; in the experiment with OVCAR-5 ovarian, 29.8 µM. Besides, the TGI with SNB-75 CNS came to 39.9 µM; with T-47D breast, 4.62 µM; with HL-60(TB) leukemia, 0.631 µM; in the experiment on PC-3 prostate, 28.5 µM.

Consider `COCO[C@@H]1CC2C=Nc3cc(OCc4ccccc4)c(OC)cc3C(=O)N2C1` (stereo not given in full), for which the GI50 in the experiment with UACC-257 melanoma is 1.09 µM; in the experiment with SK-MEL-2 melanoma, 0.49 µM; in the experiment on CCRF-CEM leukemia it was 0.313 µM; in the experiment on HT29 colon, 0.4 µM; with NCI-H226 lung it was 2.88 µM; in the experiment with OVCAR-5 ovarian it was 0.765 µM. The GI50 with SNB-75 CNS was 1.09 µM; in the experiment with T-47D breast, 0.154 µM; with HL-60(TB) leukemia, 0.486 µM; in the experiment with PC-3 prostate, 1.09 µM. Besides, the TGI in the experiment on SK-MEL-2 melanoma was 2.08 µM; with CCRF-CEM leukemia, 21.6 µM; in the experiment on HT29 colon it was above 100 µM; in the experiment with NCI-H226 lung it was 61.1 µM; in the experiment with OVCAR-5 ovarian it was 5.79 µM; in the experiment on HL-60(TB) leukemia, above 100 µM. Moreover, in the experiment with PC-3 prostate, the TGI came to 36.9 µM.

As to `COc1ccc(CCN2COc3ccc4ccc(=O)oc4c3C2)cc1OC`, the TGI in the experiment on UACC-257 melanoma was above 100 µM; in the experiment on SK-MEL-2 melanoma, above 100 µM; in the experiment on CCRF-CEM leukemia, 54.8 µM; in the experiment with HT29 colon, above 100 µM; with NCI-H226 lung it was above 100 µM; in the experiment with OVCAR-5 ovarian, above 100 µM. The TGI is above 100 µM in the experiment on SNB-75 CNS, above 100 µM in the experiment on T-47D breast, 41.7 µM in the experiment on HL-60(TB) leukemia and above 100 µM in the experiment on PC-3 prostate.

Regarding `CC#CC(=O)N[C@H]1CCCN(c2c(F)cc(C(N)=O)c3[nH]c(C)c(C)c23)C1`, the GI50 in the experiment with UACC-257 melanoma was 14.5 µM; in the experiment with SK-MEL-2 melanoma, 16.4 µM; in the experiment on CCRF-CEM leukemia, 27.5 µM; in the experiment on HT29 colon, 25 µM; in the experiment on NCI-H226 lung it was 21.1 µM; in the experiment on OVCAR-5 ovarian, 23 µM. Also, the GI50 with SNB-75 CNS was 7.66 µM; with T-47D breast it was 13.6 µM; in the experiment with HL-60(TB) leukemia it was 21.4 µM; with PC-3 prostate, 21.5 µM. For the same compound, the TGI in the experiment on UACC-257 melanoma was determined as 34.9 µM; in the experiment on SK-MEL-2 melanoma, 35.7 µM; in the experiment with CCRF-CEM leukemia, 85 µM; in the experiment with HT29 colon, 72.3 µM; with NCI-H226 lung it was 51.6 µM; in the experiment with OVCAR-5 ovarian, 88.5 µM. The TGI stood at 21.3 µM with SNB-75 CNS, 44.3 µM in the experiment with T-47D breast, 46 µM with HL-60(TB) leukemia and 62.2 µM with PC-3 prostate.

With `Cc1ccc(C(CC(=O)c2ccccc2)C(C(=O)c2ccccc2)C(c2ccc(C)cc2)C2C(=O)NC(=S)NC2=O)cc1` (stereo not given), the GI50 with UACC-257 melanoma was 13.4 µM; with SK-MEL-2 melanoma it was 7.96 µM; in the experiment on CCRF-CEM leukemia it was 15.8 µM; with HT29 colon it was 28.1 µM; with NCI-H226 lung, 14.9 µM; with OVCAR-5 ovarian, 31 µM. The GI50 with SNB-75 CNS is above 50 µM; with T-47D breast, 5.78 µM; in the experiment with HL-60(TB) leukemia it was 18.7 µM; in the experiment on PC-3 prostate, 10.4 µM. In addition, the TGI in the experiment on UACC-257 melanoma, in the experiment on SK-MEL-2 melanoma, in the experiment with CCRF-CEM leukemia, with HT29 colon, in the experiment on NCI-H226 lung and with OVCAR-5 ovarian was above 50 µM in each case. The TGI in the experiment with SNB-75 CNS, in the experiment with T-47D breast, in the experiment with HL-60(TB) leukemia and in the experiment with PC-3 prostate was above 50 µM throughout.

With `C/C=C1\C[C@@H]2C(OC)Nc3cc(O)c(OC)cc3C(=O)N2C1` (stereo not given in full), the TGI was 0.0413 µM and < 0.0126 µM in the experiment with UACC-257 melanoma; 0.00713 µM and < 0.0159 µM in the experiment with SK-MEL-2 melanoma; 0.103 µM and 0.349 µM in the experiment with CCRF-CEM leukemia; 0.16 µM and < 0.215 µM in the experiment on HT29 colon; 0.728 µM and 0.163 µM in the experiment with NCI-H226 lung; 0.0632 µM and 0.306 µM in the experiment on OVCAR-5 ovarian. Moreover, the TGI with SNB-75 CNS was 0.0205 µM and 0.0167 µM; in the experiment on T-47D breast, 0.0783 µM and < 0.0265 µM; in the experiment with HL-60(TB) leukemia it was 0.216 µM and 0.0852 µM; in the experiment with PC-3 prostate it was 0.404 µM and 0.478 µM. In addition, the GI50 is 0.00288 µM in the experiment on SK-MEL-2 melanoma; 0.00229 µM in the experiment with CCRF-CEM leukemia; 0.0075 µM with HT29 colon; 0.116 µM with NCI-H226 lung; 0.00775 µM with OVCAR-5 ovarian; 0.00482 µM with SNB-75 CNS. The values for the GI50 in the experiment on HL-60(TB) leukemia and in the experiment on PC-3 prostate were 0.00226 µM and 0.0221 µM, respectively.

With `C(=C\c1nc2ccccc2s1)/c1ccc(N2CCOCC2)s1`, the GI50 in the experiment on UACC-257 melanoma is 51.3 µM; with SK-MEL-2 melanoma it was 63.8 µM; in the experiment with CCRF-CEM leukemia it was 55.7 µM; in the experiment with HT29 colon, 20.8 µM; in the experiment with NCI-H226 lung, 43.3 µM; in the experiment with OVCAR-5 ovarian it was 66.9 µM. Moreover, the GI50 in the experiment on SNB-75 CNS was 31.6 µM; in the experiment on T-47D breast it was 71 µM; in the experiment with HL-60(TB) leukemia, above 100 µM; in the experiment with PC-3 prostate it was 33.7 µM. For the same compound, the TGI in the experiment on UACC-257 melanoma, with SK-MEL-2 melanoma, in the experiment with CCRF-CEM leukemia, in the experiment on HT29 colon, with NCI-H226 lung and in the experiment on OVCAR-5 ovarian was above 100 µM each time. The TGI in the experiment with SNB-75 CNS, in the experiment with T-47D breast, in the experiment on HL-60(TB) leukemia and in the experiment with PC-3 prostate was above 100 µM throughout.
